Test results: patent US20100173888A1 (Pfizer Inc, priority 2008, published 2010)

Target: human recombinant H-PGDS (Homo sapiens, UniProt O60760)
Assay: Slightly modified fluorescence intensity h-PGDS TBA enzyme assay (1:40,000 enzyme, 40 second reaction, 1/2 log dilutions, top concentration typically 10 μM)
Format: biochemical
Conditions: slightly modified assay: 1:40,000 human recombinant H-PGDS
Procedure: Fluoresecence Intensity h-PGDSTBA Enzyme Assay
Prostaglandin D Synthase (PGDS) converts the substrate prostaglandin H2 (PGH2) to prostaglandin D2. The depletion of PGH2 was measured via an Fe(II) reduction of the remaining PGH2 to malondialdehyde (MDA) and 12-HHT. The enzyme assay is based on the quantitative formation of a fluorescent complex from the non-fluorescent compounds MDA and 2-thiobarbituric acid (TBA), substantially as described in U.S. patent application publication US-2004/152148 by Lombardt.
Examples 6-8, 11a-16, 23, 26-47, 49-103, 105-113, 115-118 and 126-128 were tested in a slightly modified assay: The enzyme assay (30 μls during biological process) contained 100 mM Trizma pH 8.0, 100 μM MgCl2, 0.1 mg/ml IgG Rabbit serum, 5.0 μM PGH2 (Cayman; ethanol solution, #17020), 2.5 mM L-Glutathione (Sigma; reduced form #G4251), 1:40,000 human recombinant H-PGDS (from 1 mg/ml), 0.5% DMSO and inhibitor (varying concentration). 3 μls of diluted inhibitor (dissolved in DMSO) was plated into a 384-well assay plate followed by a 24 μl addition of an enzyme solution containing h-PGDS, Trizma, MgCl2, IgG and L-Glutathione. After pre-incubation of inhibitor and enzyme solution for 10 minutes at room temperature, the reaction was initiated with a 3 μl addition of substrate solution in 10 mM HCl. The reaction was terminated after 40 second by the addition of 3 μl stop buffer containing FeCl2 and citric acid. After addition of 45 μls of TBA plates were heated for one hour in a 70° C. oven. Plates were cooled at room temperature overnight and read on a plate reader the next day with excitation @ 530 nm and emission @ 560 nm. IC50' s of inhibitors were calculated with a 4-parameter fit using 11 inhibitor concentrations in duplicate with ½ log serial dilutions. Controls on each plate included no inhibitor (zero % effect) and an inhibitor 500-fold in excess of its' IC50 (100% effect). The highest inhibitor concentration tested was typically 10 μM.

human recombinant H-PGDS, sequence (O60760 whole entry): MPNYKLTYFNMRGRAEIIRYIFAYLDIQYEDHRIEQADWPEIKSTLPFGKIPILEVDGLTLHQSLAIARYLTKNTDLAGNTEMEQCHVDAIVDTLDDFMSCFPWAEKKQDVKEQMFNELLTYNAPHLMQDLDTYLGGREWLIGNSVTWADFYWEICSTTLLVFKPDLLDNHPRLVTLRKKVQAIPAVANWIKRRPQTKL

IC50 [nM]	Structure (SMILES)
13	O=C(NC1CCC(c2ncc[nH]2)CC1)c1ccc(-c2cccc(F)c2)nc1 (single isomer, unassigned) [Example 63, 6-(3-Fluorophenyl)-N-[4-(1H-imidazol-2-yl)cyclohexyl]nicotinamide]
6.2	O=C(NC1CCC(c2ncc[nH]2)CC1)c1ccc(-c2cccc(F)c2)nc1 (single isomer, unassigned) [Example 64, 6-(3-Fluorophenyl)-N-[4-(1H-imidazol-2-yl)cyclohexyl]nicotinamide]
159	O=C(NC1CC1)c1ccc(-c2cccc(F)c2)nc1 [Example 6, N-Cyclopropyl-6-(3-fluoro-phenyl)-nicotinamide]
292	CN(C)C[C@H]1C[C@@H](NC(=O)c2ccc(-c3cccc(F)c3)nc2)C1 [Example 7]
1720	O=C(N[C@H]1CCC[C@H]1C(=O)O)c1ccc(-c2cccc(F)c2)nc1 [Example 8]
125	O=C(N[C@@H]1CC[C@H](C(=O)O)C1)c1ccc(-c2cccc(F)c2)nc1 [Example 11a, (1S,3R)-3-({[6-(3-Fluorophenyl)pyridin-3-yl]carbonyl}amino)cyclopentanecarboxylic acid]
13.7	O=C(N[C@H]1CC[C@@H](C(=O)O)C1)c1ccc(-c2cccc(F)c2)nc1 [Example 11b, (1R,3S)-3-({[6-(3-Fluorophenyl)pyridin-3-yl]carbonyl}amino)cyclopentanecarboxylic acid]
11.2	CN1CCN(C(=O)[C@H]2CC[C@@H](NC(=O)c3ccc(-c4cccc(F)c4)nc3)C2)CC1 [Example 12, 6-(3-Fluorophenyl)-N-{(1R,3S)-3-[(4-methylpiperazin-1-yl)carbonyl]cyclopentyl}nicotinamide]
16.5	O=C(N[C@@H]1CC[C@H](C(=O)N2CCNCC2)C1)c1ccc(-c2cccc(F)c2)nc1 [Example 13, 6-(3-Fluorophenyl)-N-[(1R,3S)-3-(piperazin-1-ylcarbonyl)cyclopentyl]nicotinamide]
7.48	O=C(N[C@@H]1CC[C@H](C(=O)N2CCC(O)CC2)C1)c1ccc(-c2cccc(F)c2)nc1 [Example 14, 6-(3-Fluorophenyl)-N-{(1R,3S)-3-[(4-hydroxypiperidin-1-yl)carbonyl]cyclopentyl}nicotinamide]
10.3	O=C(N[C@@H]1CC[C@H](C(=O)N2CC[C@H](O)C2)C1)c1ccc(-c2cccc(F)c2)nc1 [Example 15, 6-(3-Fluorophenyl)-N-[(1R,3S)-3-{[(3S)-3-hydroxypyrrolidin-1-yl]carbonyl}cyclopentyl]nicotinamide]
29.1	N[C@H]1CCN(C(=O)[C@H]2CC[C@@H](NC(=O)c3ccc(-c4cccc(F)c4)nc3)C2)C1 [Example 16, N-[(1R,3S)-3-{[(3S)-3-Aminopyrrolidin-1-yl]carbonyl}cyclopentyl]-6-(3-fluorophenyl)nicotinamide]
67.5	NC1CCC(NC(=O)c2ccc(-c3cccc(F)c3)nc2)CC1 (stereo not shown) [Example 44, N-(4-Aminocyclohexyl)-6-(3-fluorophenyl)nicotinamide]
10.5	CSc1nccn1C1CCC(NC(=O)c2ccc(-c3cccc(F)c3)nc2)CC1 (stereo not shown) [Example 45, 6-(3-Fluorophenyl)-N-{4-[2-(methylthio)-1H-imidazol-1-yl]cyclohexyl}nicotinamide]
10.7	CC(=O)NC1CCC(NC(=O)c2ccc(-c3cccc(F)c3)nc2)CC1 (stereo not shown) [Example 46, N-(4-Acetamidocyclohexyl)-6-(3-fluorophenyl)nicotinamide]
23	O=C(NC1CCC(n2ccnc2)CC1)c1ccc(-c2cccc(F)c2)nc1 (stereo not shown) [Example 47, 6-(3-Fluorophenyl)-N-[4-(1H-imidazol-1-yl)cyclohexyl]nicotinamide]
9.26	O=C(NC1CCC(N2CCCOCC2)CC1)c1ccc(-c2cccc(F)c2)nc1 (stereo not shown) [Example 53, 6-(3-Fluorophenyl)-N-[4-(1,4-oxazepan-4-yl)cyclohexyl]nicotinamide]
137	O=C(NC1CCC(N2CCC(O)CC2)CC1)c1ccc(-c2cccc(F)c2)nc1 (stereo not shown) [Example 62, 6-(3-Fluorophenyl)-N-[4-(4-hydroxypiperidin-1-yl)cyclohexyl]nicotinamide]
8.3	COCCNC(=O)[C@@H]1CCC[C@H](NC(=O)c2ccc(-c3cccc(F)c3)nc2)C1 [Example 64A, 6-(3-fluorophenyl)-N-{(1S,3R)-3-[(2-methoxyethyl)carbamoyl]cyclohexyl}nicotinamide]

IC50 [nM]	Structure (SMILES)
15.7	O=C(N[C@H]1CC[C@@H](O)CC1)c1ccc(-c2cccc(F)c2)nc1 [Example 65, 6-(3-Fluorophenyl)-N-(cis-4-hydroxycyclohexyl)nicotinamide]
97.4	O=C(N[C@H]1CC[C@@H](C(=O)O)CC1)c1ccc(-c2cccc(F)c2)nc1 [Example 66, cis-4-({[6-(3-Fluorophenyl)pyridin-3-yl]carbonyl}amino)cyclohexanecarboxylic acid]
118	CN(C)C[C@H]1CC[C@@H](NC(=O)c2ccc(-c3cccc(F)c3)nc2)CC1 [Example 67, N-{cis-4-[(Dimethylamino)methyl]cyclohexyl}-6-(3-fluorophenyl)nicotinamide]
13.2	O=C(N[C@H]1CC[C@@H](C(=O)N2CCC(O)CC2)CC1)c1ccc(-c2cccc(F)c2)nc1 [Example 68, 6-(3-Fluorophenyl)-N-{cis-4-[(4-hydroxypiperidin-1-yl)carbonyl]cyclohexyl}nicotinamide]
14.7	O=C(N[C@H]1CC[C@@H](C(=O)NC2CCCC2)CC1)c1ccc(-c2cccc(F)c2)nc1 [Example 69, N-[cis-4-(Cyclopentylcarbmoyl)cyclohexyl]-6-(3-fluorophenyl)nicotinamide]
4.62	O=C(N[C@H]1CC[C@@H](C(=O)N2CCCC2)CC1)c1ccc(-c2cccc(F)c2)nc1 [Example 70, 6-(3-Fluorophenyl)-N-[cis-4-(pyrrolidin-1-ylcarbonyl)cyclohexyl]nicotinamide]
22	O=C(N[C@H]1CC[C@@H](C(=O)NCc2ccccc2)CC1)c1ccc(-c2cccc(F)c2)nc1 [Example 71, N-[cis-4-(Benzylcarbamoyl)cyclohexyl]-6-(3-fluorophenyl)nicotinamide]
23.2	CN1CCN(C(=O)[C@H]2CC[C@@H](NC(=O)c3ccc(-c4cccc(F)c4)nc3)CC2)CC1 [Example 72, 6-(3-Fluorophenyl)-N-{cis-4-[(4-methylpiperazin-1-yl)carbonyl]cyclohexyl}nicotinamide]
14	O=C(N[C@H]1CC[C@@H](C(=O)N2CCOCC2)CC1)c1ccc(-c2cccc(F)c2)nc1 [Example 73, 6-(3-Fluorophenyl)-N-[cis-4-(morpholin-4-ylcarbonyl)cyclohexyl]nicotinamide]
10.8	CN(C)C(=O)[C@H]1CC[C@@H](NC(=O)c2ccc(-c3cccc(F)c3)nc2)CC1 [Example 74, N-[cis-4-(Dimethylcarbamoyl)cyclohexyl]-6-(3-fluorophenyl)nicotinamide]
20.6	CC(C)(C)NC(=O)[C@H]1CC[C@@H](NC(=O)c2ccc(-c3cccc(F)c3)nc2)CC1 [Example 75, N-[cis-4-(tert-Butylcarbamoyl)cyclohexyl]-6-(3-fluorophenyl)nicotinamide]
31.8	CNCCN(C)C(=O)[C@H]1CC[C@@H](NC(=O)c2ccc(-c3cccc(F)c3)nc2)CC1 [Example 76, 6-(3-Fluorophenyl)-N-(cis-4-{methyl[2-(methylamino)ethyl]carbamoyl}cyclohexyl)nicotinamide]
6.42	CCN(C)C(=O)[C@H]1CC[C@@H](NC(=O)c2ccc(-c3cccc(F)c3)nc2)CC1 [Example 77, N-{cis-4-[Ethyl(methyl)carbamoyl]cyclohexyl}-6-(3-fluorophenyl)nicotinamide]
7.89	CN(C)C(=O)C[C@H]1CC[C@@H](NC(=O)c2ccc(-c3cccc(F)c3)nc2)CC1 [Example 78]
15.9	Cc1nccn1C[C@H]1CC[C@@H](NC(=O)c2ccc(-c3cccc(F)c3)nc2)CC1 [Example 79, 6-(3-Fluorophenyl)-N-{cis-4-[(2-methyl-1H-imidazol-1-yl)methyl]cyclohexyl}nicotinamide]
16.6	O=C(N[C@H]1CC[C@@H](CN2CCOCC2)CC1)c1ccc(-c2cccc(F)c2)nc1 [Example 80, 6-(3-Fluorophenyl)-N-[cis-4-(morpholin-4-ylmethyl)cyclohexyl]nicotinamide]
53.4	CN1CCN(C[C@H]2CC[C@@H](NC(=O)c3ccc(-c4cccc(F)c4)nc3)CC2)CC1 [Example 81, 6-(3-Fluorophenyl)-N-{cis-4-[(4-methylpiperazin-1-yl)methyl]cyclohexyl}nicotinamide]
12.6	Cn1nnnc1O[C@H]1CC[C@H](NC(=O)c2ccc(-c3cccc(F)c3)nc2)CC1 [Example 82, 6-(3-Fluorophenyl)-N-{trans-4-[(1-methyl-1H-tetrazol-5-yl)oxy]cyclohexyl}nicotinamide]
